From the supplement of paper PMC10307832

How the values were obtained:
Experiment in all cases: relative viability (nuclei count vs DMSO), 5 days (fraction); higher = more cells survive
NCI-H596 = test system: NCI-H596
Procedure, shortened: (§1)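 The day after seeding in 1536-well plates, lung cancer cell lines were treated by pin tool with a single drug, or with a fixed anchor-drug dose together with five library-drug doses (not always all listed) in √10 steps. After 5 days, a combined fix-and-stain solution (final 0.05% Triton X-100, 1% formaldehyde, 1 ug/ml Hoechst) was added. Nuclei counted on 4× images gave relative viability as treated counts over vehicle counts, reported as the median of duplicate plates.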

COR-L 105 = test system: COR-L 105
Procedure, shortened: as §1

NCI-H2126 = test system: NCI-H2126
Procedure, shortened: as §1

LOU-NH91 = test system: LOU-NH91
Procedure, shortened: as §1

NCI-H650 = test system: NCI-H650
Procedure, shortened: as §1

ChaGo-K-1 = test system: ChaGo-K-1
Procedure, shortened: as §1

NCI-H3122 = test system: NCI-H3122
Procedure, shortened: as §1

EKVX = test system: EKVX
Procedure, shortened: as §1

NCI-H2228 = test system: NCI-H2228
Procedure, shortened: as §1

NCI-H1975 = test system: NCI-H1975
Procedure, shortened: as §1

LCLC-103H = test system: LCLC-103H
Procedure, shortened: as §1

CCNC(=O)c1noc(-c2cc(C(C)C)c(O)cc2O)c1-c1ccc(CN2CCOCC2)cc1 [Luminespib] + C[C@@H](Oc1cc(-c2cnn(C3CCNCC3)c2)cnc1N)c1c(Cl)ccc(F)c1Cl [Crizotinib] (partner 1 µM)
relative viability (NCI-H596; first compound 0.002 µM): 1.05
relative viability (NCI-H596; first compound 0.006325 µM): 1
relative viability (NCI-H596; first compound 0.06325 µM): 0.851
relative viability (NCI-H596; first compound 0.2 µM): 0.938
relative viability (COR-L 105; first compound 0.002 µM): 0.996
relative viability (COR-L 105; first compound 0.006325 µM): 0.897
relative viability (COR-L 105; first compound 0.02 µM): 0.976
relative viability (COR-L 105; first compound 0.06325 µM): 0.165
relative viability (COR-L 105; first compound 0.2 µM): 0.224
relative viability (NCI-H2126; first compound 0.002 µM): 1.08
relative viability (NCI-H2126; first compound 0.006325 µM): 0.97
relative viability (NCI-H2126; first compound 0.02 µM): 0.84
relative viability (NCI-H2126; first compound 0.06325 µM): 0.993
relative viability (NCI-H2126; first compound 0.2 µM): 0.951
relative viability (LOU-NH91; first compound 0.002 µM): 0.765
relative viability (LOU-NH91; first compound 0.006325 µM): 0.726
relative viability (LOU-NH91; first compound 0.02 µM): 0.55
relative viability (LOU-NH91; first compound 0.06325 µM): 0.328
relative viability (LOU-NH91; first compound 0.2 µM): 0.351
relative viability (NCI-H650; first compound 0.002 µM): 0.887
relative viability (NCI-H650; first compound 0.006325 µM): 0.745
relative viability (NCI-H650; first compound 0.02 µM): 0.487
relative viability (NCI-H650; first compound 0.06325 µM): 0.0913
relative viability (NCI-H650; first compound 0.2 µM): 0.102
relative viability (ChaGo-K-1; first compound 0.002 µM): 1.23
relative viability (ChaGo-K-1; first compound 0.02 µM): 1.01
relative viability (ChaGo-K-1; first compound 0.06325 µM): 0.562
relative viability (ChaGo-K-1; first compound 0.2 µM): 0.301
relative viability (NCI-H3122; first compound 0.002 µM): 0.278
relative viability (NCI-H3122; first compound 0.006325 µM): 0.267
relative viability (NCI-H3122; first compound 0.02 µM): 0.222
relative viability (NCI-H3122; first compound 0.06325 µM): 0.181
relative viability (NCI-H3122; first compound 0.2 µM): 0.165
relative viability (EKVX; first compound 0.002 µM): 0.985
relative viability (EKVX; first compound 0.006325 µM): 0.989
relative viability (EKVX; first compound 0.02 µM): 0.97
relative viability (EKVX; first compound 0.06325 µM): 0.472
relative viability (EKVX; first compound 0.2 µM): 0.218
relative viability (NCI-H2228; first compound 0.002 µM): 0.47
relative viability (NCI-H2228; first compound 0.006325 µM): 0.514
relative viability (NCI-H2228; first compound 0.02 µM): 0.264
relative viability (NCI-H2228; first compound 0.06325 µM): 0.161
relative viability (NCI-H2228; first compound 0.2 µM): 0.148
relative viability (NCI-H1975; first compound 0.002 µM): 0.975
relative viability (NCI-H1975; first compound 0.006325 µM): 0.99
relative viability (NCI-H1975; first compound 0.02 µM): 0.763
relative viability (NCI-H1975; first compound 0.06325 µM): 0.147
relative viability (NCI-H1975; first compound 0.2 µM): 0.15
relative viability (LCLC-103H; first compound 0.002 µM): 1.02
relative viability (LCLC-103H; first compound 0.006325 µM): 1.04
relative viability (LCLC-103H; first compound 0.02 µM): 0.908
relative viability (LCLC-103H; first compound 0.06325 µM): 1.02
relative viability (LCLC-103H; first compound 0.2 µM): 1.15
